According to paper PMC10681895, “Dasatinib anhydrate containing oral formulation improves variability and bioavailability in humans” (Leukemia, 2023):
Read-outs that look alike come from different tables or passages of the source.

Assays:
[1] = Bioavailability of anhydrous vs monohydrate form of dasatinib by gastric pH (data on file); format: in vivo, human
[2] = Drug-drug interaction study with omeprazole (staggered approach), pharmacokinetics; conditions: human, plasma, oral
Experimental: The DDI study was a single-sequence, 2-period, open-label study to investigate the effects of an oral proton pump inhibitor (PPI) omeprazole (Helicid 40 mg capsules, Zentiva, k.s., Czech Republic) administered QD for 5 days on the pharmacokinetics (PK) of T when ingested 2 h prior to the last omeprazole dose (‘staggered approach’). All subjects received T alone in the first period and T under pre-treatment with omeprazole in the second period.
Subjects fasted for at least 10 h prior to dosing and no food was provided until 4 h after the dose, after which a standardized breakfast was served. […]
The plasma concentration-time profiles and pharmacokinetic parameters determined for dasatinib included maximum plasma concentration (Cmax), time to reach the maximum plasma concentration (Tmax), area under the plasma concentration-time curve from time zero to the time of the last quantifiable concentration (AUC0-t, measured by linear trapezoid method), AUC from time zero to infinity (AUC0-inf), terminal elimination half-life (thalf). The pharmacokinetic parameters were determined by non-compartmental methods using Phoenix WinNonlin, version 8.1 (Certara, USA).
Arithmetic mean and standard deviation were summarized for the main pharmacokinetic parameters. For Tmax, median and range were determined. […]

[3] = Intrinsic dissolution rate, rotation disk (Sirius inForm), acetate/phosphate buffer pH 4.5; conditions: for intrinsic dissolution rate: acetate buffer pH 4.5, 37 °C, 100 rpm
[4] = parameters: method as in PMID 19395585; conditions: cited from earlier work
[5] = Safety and tolerability, drug-drug interaction study (adverse events, CTC grade); format: in vivo, human; conditions: after dasatinib alone
Experimental: Safety was evaluated through assessment of adverse events, clinical and laboratory test results, physical examination, and concomitant medication usage.

[6] = cited from earlier work
[7] = test system: non-small-cell lung carcinoma; parameters: method as in PMID 25246385; conditions: cited from earlier work
[8] = parameters: method as in PMID 15032311, PMID 15568890; conditions: oral; cited from earlier work
[9] = without PPI or H2-receptor antagonists

Cc1nc(Nc2ncc(C(=O)Nc3c(C)cccc3Cl)s2)cc(N2CCN(CCO)CC2)n1 [dasatinib anhydrate, dasatinib]
increase of bioavailability compared with monohydrate form ([1]; normogastric population): approximately 20% | fold higher bioavailability compared with monohydrate form ([1]; subjects with gastric pH >4 (data on file)): about 3.5 fold | Tmax [2]: 1.25 h | Tmax ([2]; 110.6 mg): 0.83 h | fold higher intrinsic dissolution rate compared to monohydrate form ([3]; acetate buffer pH 4.5): more than 80 fold | intrinsic dissolution rate ([3]; listed as Anhydrous polymorph of dasatinib): 1606 mcg/min/cm^2 | fold difference in aqueous solubility compared with monohydrate form ([3]; pH of 4.5): > 80 fold

Cc1nc(Nc2ncc(C(=O)Nc3c(C)cccc3Cl)s2)cc(N2CCN(CCO)CC2)n1 [dasatinib monohydrate, dasatinib]
solubility ([4]; pH 2.6): 18400 µg/mL | solubility ([4]; pH 4.28): 205 µg/mL | solubility ([4]; pH 6.99): < 1 µg/mL | intrinsic dissolution rate ([3]; listed as monohydrate form): 19 mcg/min/cm^2

Cc1nc(Nc2ncc(C(=O)Nc3c(C)cccc3Cl)s2)cc(N2CCN(CCO)CC2)n1 [dasatinib]
Chills, number of adverse effects ([5]; CTC Grade 1): 1 | Fever, number of adverse effects ([5]; CTC Grade 1): 0 | Headache, number of adverse effects ([5]; CTC Grade 1): 1 | Nausea, number of adverse effects ([5]; CTC Grade 1): 3 | Neck exanthema, number of adverse effects ([5]; CTC Grade 1): 0 | Palmar exanthema, number of adverse effects ([5]; CTC Grade 1): 0 | Vomiting, number of adverse effects ([5]; CTC Grade 1): 1 | Weakness, number of adverse effects ([5]; CTC Grade 1): 2 | Chills, number of adverse effects ([5]; CTC Grade 2): 0 | Fever, number of adverse effects ([5]; CTC Grade 2): 1 | Headache, number of adverse effects ([5]; CTC Grade 2): 6 | Nausea, number of adverse effects ([5]; CTC Grade 2): 1 | Neck exanthema, number of adverse effects ([5]; CTC Grade 2): 1 | Palmar exanthema, number of adverse effects ([5]; CTC Grade 2): 1 | Vomiting, number of adverse effects ([5]; CTC Grade 2): 0 | Weakness, number of adverse effects ([5]; CTC Grade 2): 0 | decrease of AUC ([6]; co-administration of dexamethasone, according to the label): approximately 25% | AUC decrease ([6]; co-administration with antacids): ~ 55% | prevention of dasatinib AUC decrease induced by rabeprazole ([6]; co-administration with betaine hydrochloride): 78% | AUC decrease ([6]; co-administration with famotidine): ~ 60% | reduction in dasatinib bioavailability ([6]; dasatinib administered 22 h after the last dose of the PPI): > 40%

C#Cc1cccc(Nc2ncnc3cc(OCCOC)c(OCCOC)cc23)c1 [erlotinib]
median progression free survival ([7]; with co-administration of PPI or H2-receptor antagonists, p < 0.001): 1.4 months | median overall survival ([7]; with co-administration of PPI or H2-receptor antagonists, p = 0.003): 12.9 months | median overall survival [7, 9]: 16.8 months | median progression free survival [7, 9]: 2.3 months

O=C1NC(=O)C(c2ccccc2)(c2ccccc2)N1 [phenytoin]
absolute bioavailability [8]: > 90%
